For four molecules, Activity and IC50 results are on record in ChEMBL document CHEMBL1139264 (Bioorg Med Chem Lett, 2009).

Assay [1] deals with Estrogen receptor beta (Homo sapiens) (UniProt Q92731). The assay is described as follows: Binding affinity to human ERbeta receptor relative to estrogen.
The target in assay [2] is T1, Estrogen receptor (Homo sapiens, UniProt P03372).
T1 sequence (P03372 whole entry): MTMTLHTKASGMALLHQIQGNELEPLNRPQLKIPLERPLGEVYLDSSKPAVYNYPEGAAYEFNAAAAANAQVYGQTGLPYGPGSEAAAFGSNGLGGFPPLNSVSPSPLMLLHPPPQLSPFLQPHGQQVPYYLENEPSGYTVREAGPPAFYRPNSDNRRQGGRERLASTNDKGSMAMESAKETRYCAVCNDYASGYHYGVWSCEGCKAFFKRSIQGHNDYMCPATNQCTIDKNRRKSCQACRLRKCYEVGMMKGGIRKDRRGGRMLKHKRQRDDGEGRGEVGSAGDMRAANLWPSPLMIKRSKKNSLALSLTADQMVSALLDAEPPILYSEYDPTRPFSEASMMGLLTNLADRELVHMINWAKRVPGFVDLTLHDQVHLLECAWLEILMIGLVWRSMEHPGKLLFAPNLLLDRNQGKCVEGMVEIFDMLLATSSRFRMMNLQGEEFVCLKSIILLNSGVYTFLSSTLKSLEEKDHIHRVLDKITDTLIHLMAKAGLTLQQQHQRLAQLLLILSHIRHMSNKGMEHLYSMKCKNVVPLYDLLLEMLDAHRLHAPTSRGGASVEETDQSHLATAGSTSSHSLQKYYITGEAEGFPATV
Description: Antagonist activity at human ERalpha receptor expressed in HEC1 cells assessed as transcriptional activation after 24 hrs by luciferase reporter gene assay

Sequence of Estrogen receptor beta (Homo sapiens) (Q92731 whole entry): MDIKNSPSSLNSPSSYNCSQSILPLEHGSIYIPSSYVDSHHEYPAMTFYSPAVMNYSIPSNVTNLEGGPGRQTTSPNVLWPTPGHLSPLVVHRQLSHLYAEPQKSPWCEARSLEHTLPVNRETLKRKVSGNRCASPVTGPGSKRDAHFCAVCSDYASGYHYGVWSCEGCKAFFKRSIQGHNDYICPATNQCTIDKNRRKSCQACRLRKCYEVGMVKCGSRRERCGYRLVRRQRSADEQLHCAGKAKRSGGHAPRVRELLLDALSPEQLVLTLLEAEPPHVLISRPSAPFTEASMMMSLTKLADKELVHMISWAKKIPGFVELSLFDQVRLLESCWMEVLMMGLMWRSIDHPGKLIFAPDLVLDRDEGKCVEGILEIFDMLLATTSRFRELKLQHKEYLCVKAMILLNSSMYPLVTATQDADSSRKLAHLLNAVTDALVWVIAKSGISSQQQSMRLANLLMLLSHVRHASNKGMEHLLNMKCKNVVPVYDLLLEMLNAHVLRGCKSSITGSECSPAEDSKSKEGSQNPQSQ

Take `Cc1c(-c2ccc(O)cc2)nn(-c2ccc(O)cc2)c1-c1ccc(OCCN2CCCCC2)cc1`: the Activity in assay [1] was 0.05%.
In turn, `Cc1c(-c2ccc(O)cc2)nn(-c2ccc(O)cc2)c1-c1ccc(O)cc1` showed an Activity in assay [1] of 0.039%.
The term IC50 denotes the midpoint of a concentration-inhibition curve. A higher IC50 goes with weaker potency. The molecule `Cc1c(-c2ccc(O)cc2)nn(-c2ccc(O)cc2)c1-c1ccc(CCCN2CCCCC2)cc1` registered an IC50 in assay [2] of 20 nM. This molecule also showed an Activity in assay [1] of 0.016%.
In assay [2], `Cc1c(-c2ccc(O)cc2)nn(-c2ccc(O)cc2)c1-c1ccc(/C=C/C(=O)N2CCCCC2)cc1` registered an IC50 of 1000 nM. The same molecule gave an Activity in assay [1] of 0.015%.
